# From paper PMC8557866, “Novel Small Molecule Growth Inhibitor Affecting Bacterial Outer Membrane Reduces Extraintestinal Pathogenic Escherichia coli (ExPEC) Infection in Avian Model” (Microbiology Spectrum, 2021)
# Tests used:
# APEC O78 [1] = tested on: APEC O78; design: method as in PMID 30333507; details: cited from earlier work
# APEC serotype O78 = details: for Cumulative lesion score: PC 6.2; for Mortality reduction compared to PC group: PC mortality 58.3%; for BWG (body weight gain): in vivo
# Protocol: The efficacy of GIs was assessed using commercial broiler chickens (n = 6/group). […] GI compounds (ChemBridge, San Diego, CA) dissolved in dimethyl sulfoxide (DMSO) were administered orally using a syringe, twice a day, from day 4 (1 day before APEC infection) to day 8 (3 days postinfection [dpi]). The dose of each GI is described in Table S1. […] Chickens that were infected and vehicle-treated (positive control [PC]) and noninfected and nontreated (negative control [NC]) were included as controls. On day 5, chickens were infected subcutaneously (s.c.) with rifampin-resistant (Rif^r) APEC serotype O78 ([18]) (1 × 10^7 CFU/chicken). […] To prepare the APEC inoculum for infection, Rif^r APEC O78 (50 μg/ml rifampin) was grown to logarithmic phase in LB medium, washed twice with phosphate-buffered saline (PBS), and adjusted to an optical density at 600 nm (OD600) of 0.1 (5 × 10^7 CFU/ml). The clinical signs and mortality were recorded until 7 dpi. Chickens that died during this period were necropsied on the same day, lesions in internal organs (liver, heart, lung, and air sacs) were scored as described previously ([63], [71]), and the APEC loads were quantified in internal organs (liver, heart, lung, and kidney) by plating the tissue homogenates on MacConkey agar plates containing 50 μg/ml rifampin ([18]). At 7 dpi (day 12), all live birds were euthanized, lesions were scored, and the APEC loads in internal organs were quantified as described above. The body weight of chickens was measured before GI treatment (day 3) and at the day of necropsy (day 12).
# [2] = Pharmacokinetic study in plasma of chickens (LC-MS); type: in vivo; details: plasma
# Protocol: Details of the methods are included in the supplemental material. page 3: previously(3). […] The mixtures were then incubated at […] for 30 min and proteins were removed by ultracentrifugation at 13,000xg for 25 min at 2 °C.
# APEC O78 [3] = assay: Comparative efficacy of GI-7 and sulfadimethoxine, floor trial; type: in vivo, commercial broiler chickens; design: % reduction in severity, Liver lesions / % reduction in severity, Heart lesions / % reduction in severity, Lung lesions / % reduction in severity, Air sacs lesions: concentration or dose not given beside the values; Cumulative lesion score / Mean lesion score in Liver / Mean lesion score in Heart / Mean lesion score in Lung / Mean lesion score in Air sacs: scale not given here
# Protocol: At day 13 (7 dpi), half of the chickens from each group, and at day 42 (slaughter age), 10 chickens from each group were necropsied and lesions and APEC loads were assessed as described above.
# [4] = Quantification of residue in chicken tissues (LC-MS); type: in vivo, chickens
# Text: Chickens (n = 5/time point) from an experimental set-up as described above for the floor trial were sacrificed at 2 days (day 13; 2 DPLT), 5 days (day 16; 5 DPLT), and 31 days (day 42; 31 DPLT) post-last treatment. […] Tissue samples from chickens treated with SDM were used for comparison. […] Details of the methods are included in the supplemental material.
# [5] = comparative efficacy trial, vs PC
# [6] = comparative efficacy, GI-7 60 mg/liter, SDM 495.3 mg/liter, 7 dpi
smiles,measurement,setting,value
COc1cc(CNCCc2ccc3ccccc3c2)ccc1OCC(O)CN1CCCC1 (centres unmarked) [GI-2],MIC,APEC O78 [1],100 µM
same,"Mean APEC load, Heart","APEC serotype O78; efficacy trial, oral",4.1 Log CFU/g tissues
same,"Mean APEC load, Kidney","APEC serotype O78; efficacy trial, oral",3.8 Log CFU/g tissues
same,"Mean APEC load, Liver","APEC serotype O78; efficacy trial, oral",3.4 Log CFU/g tissues
same,"Mean APEC load, Lung","APEC serotype O78; efficacy trial, oral",3.5 Log CFU/g tissues
same,Mean lesion score in Air sacs,"APEC serotype O78; efficacy trial, oral",1.2
same,Mean lesion score in Heart,"APEC serotype O78; efficacy trial, oral",1.8
same,Mean lesion score in Liver,"APEC serotype O78; efficacy trial, oral",1.7
same,Mean lesion score in Lung,"APEC serotype O78; efficacy trial, oral",0.7
same,Cumulative lesion score,"APEC serotype O78; efficacy trial, oral",5.3
same,Mortality reduction compared to PC group,"APEC serotype O78; efficacy trial, oral",25%
same,"% reduction in severity, Air sacs lesions","APEC serotype O78; efficacy trial, oral, vs PC",17.7%
same,"% reduction in severity, Heart lesions","APEC serotype O78; efficacy trial, oral, vs PC",12%
same,"% reduction in severity, Liver lesions","APEC serotype O78; efficacy trial, oral, vs PC",0%
same,"% reduction in severity, Lung lesions","APEC serotype O78; efficacy trial, oral, vs PC",33.3%
same,"log reduction in APEC load, Heart","APEC serotype O78; efficacy trial, oral, vs PC",0.8 Log CFU/g tissues
same,"log reduction in APEC load, Kidney","APEC serotype O78; efficacy trial, oral, vs PC",1.7 Log CFU/g tissues
same,"log reduction in APEC load, Liver","APEC serotype O78; efficacy trial, oral, vs PC",0.9 Log CFU/g tissues
same,"log reduction in APEC load, Lung","APEC serotype O78; efficacy trial, oral, vs PC",1.1 Log CFU/g tissues
same,BWG (body weight gain),APEC serotype O78,125.5±34.7
CCN1/C(=C/c2ccc3ccccc3[n+]2CC)C=Cc2ccccc21 [GI-9],MIC,APEC O78 [1],25 µM
same,"Mean APEC load, Heart","APEC serotype O78; efficacy trial, oral",5.9 Log CFU/g tissues
same,"Mean APEC load, Kidney","APEC serotype O78; efficacy trial, oral",5.7 Log CFU/g tissues
same,"Mean APEC load, Liver","APEC serotype O78; efficacy trial, oral",4.7 Log CFU/g tissues
same,"Mean APEC load, Lung","APEC serotype O78; efficacy trial, oral",5.6 Log CFU/g tissues
same,Mean lesion score in Air sacs,"APEC serotype O78; efficacy trial, oral",2.7
same,Mean lesion score in Heart,"APEC serotype O78; efficacy trial, oral",3.3
same,Mean lesion score in Liver,"APEC serotype O78; efficacy trial, oral",2.5
same,Cumulative lesion score,"APEC serotype O78; efficacy trial, oral",9.7
same,Mortality reduction compared to PC group,"APEC serotype O78; efficacy trial, oral",25%
same,"% reduction in severity, Air sacs lesions","APEC serotype O78; efficacy trial, oral, vs PC",−88.2%
same,"% reduction in severity, Heart lesions","APEC serotype O78; efficacy trial, oral, vs PC",−60%
same,"% reduction in severity, Liver lesions","APEC serotype O78; efficacy trial, oral, vs PC",−50%
same,"log reduction in APEC load, Heart","APEC serotype O78; efficacy trial, oral, vs PC",-0.5 Log CFU/g tissues
same,"log reduction in APEC load, Kidney","APEC serotype O78; efficacy trial, oral, vs PC",-0.2 Log CFU/g tissues
same,"log reduction in APEC load, Liver","APEC serotype O78; efficacy trial, oral, vs PC",-0.1 Log CFU/g tissues
same,"log reduction in APEC load, Lung","APEC serotype O78; efficacy trial, oral, vs PC",-0.9 Log CFU/g tissues
same,BWG (body weight gain),APEC serotype O78,214.9±31.9
"COc1cc(NS(=O)(=O)c2ccc(N)cc2)nc(OC)n1 [SDM, sulfadimethoxine, reference compound]",Cmax,"[2]; commercial broiler, po, mean ± standard deviation, read-out: Peak plasma concentration (Cmax)",994 ± 167 ng/mL
same,Tmax,"[2]; commercial broiler, po, postadministration, read-out: Time to maximum concentration (Tmax)",24 h
same,Absorption (time at which absorbed),[2]; drinking water delivery,2 h
same,Mortality reduction compared to PC group,"APEC O78 [3]; GI-7 60 mg/liter, SDM 495.3 mg/liter in drinking water, PC mortality 41.2%",11.9%
same,"Mean APEC load, Heart",APEC O78 [3]; comparative efficacy trial,5.6 Log CFU/g tissues
same,"Mean APEC load, Kidney",APEC O78 [3]; comparative efficacy trial,5.5 Log CFU/g tissues
same,"Mean APEC load, Liver",APEC O78 [3]; comparative efficacy trial,5.0 Log CFU/g tissues
same,"Mean APEC load, Lung",APEC O78 [3]; comparative efficacy trial,6.2 Log CFU/g tissues
same,"log reduction in APEC load, Heart",APEC O78 [3]; [5],2.3 Log CFU/g tissues
same,"log reduction in APEC load, Kidney",APEC O78 [3]; [5],2.2 Log CFU/g tissues
same,"log reduction in APEC load, Liver",APEC O78 [3]; [5],2.5 Log CFU/g tissues
same,"log reduction in APEC load, Lung",APEC O78 [3]; [5],1.9 Log CFU/g tissues
same,Cumulative lesion score,"APEC O78 [3]; comparative efficacy, 7 dpi",8.5
same,Mean lesion score in Air sacs,APEC O78 [3]; [6],2.5
same,Mean lesion score in Heart,APEC O78 [3]; [6],2.8
same,Mean lesion score in Liver,APEC O78 [3]; [6],2.0
same,Mean lesion score in Lung,APEC O78 [3]; [6],1.2
same,"% reduction in severity, Air sacs lesions","APEC O78 [3]; comparative efficacy, vs PC",25.7%
same,"% reduction in severity, Heart lesions","APEC O78 [3]; comparative efficacy, vs PC",20.8%
same,"% reduction in severity, Liver lesions","APEC O78 [3]; comparative efficacy, vs PC",19.2%
same,"% reduction in severity, Lung lesions","APEC O78 [3]; comparative efficacy, vs PC",36.9%
same,Survival of chickens,"APEC O78 [3]; floor trial, P < 0.1",increased the survival
same,Overall BWG,APEC O78 [3]; in vivo,"2,408.1 g"
same,Overall FCR,APEC O78 [3]; in vivo,1.49
same,Residue concentration in muscle,[4]; 2 DPLT,0.2 ± 0.1 ppm/g tissue
same,Residue level in kidney,[4]; 2 DPLT,1.0 ± 0.2 ppm/g tissue
same,Residue level in liver,[4]; 2 DPLT,0.2 ± 0.04 ppm/g tissue
same,Residue concentration in muscle,[4]; 5 DPLT,0.02 ± 0.02 ppm/g tissue
same,Residue level in kidney,[4]; 5 DPLT,1 ± 0.1 ppm/g tissue
same,Residue level in liver,[4]; 5 DPLT,0.04 ± 0.02 ppm/g tissue
same,Residue concentration in muscle,[4]; 31 DPLT,0.0 ± 0.0 ppm/g tissue
same,Residue level in kidney,[4]; 31 DPLT,0.0 ± 0.0 ppm/g tissue
same,Residue level in liver,[4]; 31 DPLT,0.0 ± 0.0 ppm/g tissue
